# Reference: patent US8969516B2, “Method of hydrolysis of peptide bond” (priority 2006, dated 2015)
# Experiment: MALDI-TOF screening of Ni^2+ dependent hydrolysis in a combinatorial peptide library
# Type: physicochemical
# Details: Ni^2+ 2 mM, pH 8.2, 10 mM Tris, score=24/tm
# Description: The sequence CH3CO-Gly-Ala-Ser/Thr-X-His-Z-Lys-Phe-Leu-NH2 was designed so that the fixed R1 and R2 sequences, CH3CO-Gly-Ala, and Lys-Phe-Leu-NH2, respectively, allowed optimal detection by MALDI-TOF mass spectrometry of substrates as well as expected products, Ser/Thr-X-His-Z-Lys-Phe-Leu-NH2 and assured separation between the clusters of signals for substrates and products in sublibraries (see below).
# Residues in position X included all amino acids commonly present in proteins, except for Asp, Glu, and Cys. The former two contain carboxylates in their side chains, which may bind Ni^2+ in a way which would quench or slow down the hydrolysis reaction. The Cys residue may do the same, and also may engage in side reactions with Ni^2+ ions, including redox processes (for example see Bal and Kasprzak, Toxicol. Lett. 2002, 127, 55-62). Only the Cys residue was eliminated from position Z, for the same reasons.
# The synthesis of the library was accomplished on a RINK amide resin (Novabiochem) on a 800 mg scale, according to a typical Fmoc protocol (Fields, Meth. Enzymol. Vol. 289). The resin-attached Leu-Phe-Lys peptide was synthesised first and coupled with the isokinetic mixture of 19 amino acids selected for position Z, and then with the H is residue. The resin carrying the library of pentapeptides was divided into Ser and Thr halves at this stage, and each of these halves into 17 portions, which were coupled with individual amino acids selected for position X. The coupling with Ser or Thr as appropriate, additions of Ala and Gly residues, acetylation of Gly, deprotection and cleavage from the resin were accomplished subsequently. Each of the resulting 34 samples of sublibraries randomized at position X was separated into two portions, one for the reaction at 37° C. and another for the reaction at 45° C. The hydrolysis reactions were accomplished in 10 mM Tris buffers at pH 8.2. The total concentrations of peptide mixtures and Ni^2+ ions were 1 mM and 2 mM, respectively. The pH for the reaction was chosen as selective for highly reactive sequences.
# The detection of reaction products was accomplished with the use of a MALDI-TOF mass spectrometer (Micromass). The aliquots were removed from reaction mixtures and measured by MS at 2, 4, 6, and 8 hours of incubation. The progress of reaction was evaluated by visual detection in mass spectra of appearance of signals corresponding to expected products of hydrolysis, Ser/Thr-X-His-Z-Lys-Phe-Leu-NH2, at given measurement times, tm. […] Also the decrease of signals of substrates was controlled in these cases.
# Residues X and Z were then sorted according to various molecular parameters, describing their physical properties (Carugo, In Silico Biol. 2003, 3, 0035). […] The Ser library provided a higher number of reactive peptides than the Thr library. Following the additivity of effects, the scores were also summed up in lines and columns of Table 1A-D, thereby creating final rankings for preferred substitutions in positions X and Z.
# [1] = CH3CO-Gly-Ala-Ser-X-His-Z-Lys-Phe-Leu-NH2 library, 37° C.
# [2] = CH3CO-Gly-Ala-Ser-X-His-Z-Lys-Phe-Leu-NH2 library, 45° C.
# [3] = CH3CO-Gly-Ala-Thr-X-His-Z-Lys-Phe-Leu-NH2 library, 37° C.
# [4] = CH3CO-Gly-Ala-Thr-X-His-Z-Lys-Phe-Leu-NH2 library, 45° C.
Substance,hydrolysis score from MALDI-TOF screening [1],hydrolysis score from MALDI-TOF screening [2],hydrolysis score from MALDI-TOF screening [3],hydrolysis score from MALDI-TOF screening [4]
Ac-GASHHDKFL-NH2 [SHHD],0 (a score of 0 if no trace of the product of hydrolysis was seen after 8 hours of incubation),0 (a score of 0 if no trace of the product of hydrolysis was seen after 8 hours of incubation),–,–
Ac-GASQHLKFL-NH2 [SQHL],6 (a score of 6 for detection at 4 hours),6 (a score of 6 for detection at 4 hours),–,–
Ac-GASFHNKFL-NH2 [SFHN],0 (a score of 0 if no trace of the product of hydrolysis was seen after 8 hours of incubation),0 (a score of 0 if no trace of the product of hydrolysis was seen after 8 hours of incubation),–,–
Ac-GATFHRKFL-NH2 [TFHR],–,–,3 (a score of 3 for detection at 8 hours),4 (a score of 4 for detection at 6 hours)
Ac-GASKHHKFL-NH2 [SKHH],4 (a score of 4 for detection at 6 hours),3 (a score of 3 for detection at 8 hours),–,–
Ac-GASVHHKFL-NH2 [SVHH],3 (a score of 3 for detection at 8 hours),3 (a score of 3 for detection at 8 hours),–,–
Ac-GATAHPKFL-NH2 [TAHP],–,–,0 (a score of 0 if no trace of the product of hydrolysis was seen after 8 hours of incubation),0 (a score of 0 if no trace of the product of hydrolysis was seen after 8 hours of incubation)
Ac-GATYHKKFL-NH2 [TYHK],–,–,3 (a score of 3 for detection at 8 hours),4 (a score of 4 for detection at 6 hours)
Ac-GASRHQKFL-NH2 [SRHQ],0 (a score of 0 if no trace of the product of hydrolysis was seen after 8 hours of incubation),0 (a score of 0 if no trace of the product of hydrolysis was seen after 8 hours of incubation),–,–
Ac-GASYHLKFL-NH2 [SYHL],4 (a score of 4 for detection at 6 hours),6 (a score of 6 for detection at 4 hours),–,–
Ac-GATYHIKFL-NH2 [TYHI],–,–,0 (a score of 0 if no trace of the product of hydrolysis was seen after 8 hours of incubation),0 (a score of 0 if no trace of the product of hydrolysis was seen after 8 hours of incubation)
Ac-GATSHLKFL-NH2 [TSHL],–,–,0 (a score of 0 if no trace of the product of hydrolysis was seen after 8 hours of incubation),0 (a score of 0 if no trace of the product of hydrolysis was seen after 8 hours of incubation)
Ac-GASGHVKFL-NH2 [SGHV],0 (a score of 0 if no trace of the product of hydrolysis was seen after 8 hours of incubation),3 (a score of 3 for detection at 8 hours),–,–
Ac-GASVHGKFL-NH2 [SVHG],0 (a score of 0 if no trace of the product of hydrolysis was seen after 8 hours of incubation),0 (a score of 0 if no trace of the product of hydrolysis was seen after 8 hours of incubation),–,–
Ac-GASSHGKFL-NH2 [SSHG],0 (a score of 0 if no trace of the product of hydrolysis was seen after 8 hours of incubation),3 (a score of 3 for detection at 8 hours),–,–
Ac-GATHHRKFL-NH2 [THHR],–,–,6 (a score of 6 for detection at 4 hours),6 (a score of 6 for detection at 4 hours)
Ac-GASPHEKFL-NH2 [SPHE],0 (a score of 0 if no trace of the product of hydrolysis was seen after 8 hours of incubation),0 (a score of 0 if no trace of the product of hydrolysis was seen after 8 hours of incubation),–,–
Ac-GATNHLKFL-NH2 [TNHL],–,–,0 (a score of 0 if no trace of the product of hydrolysis was seen after 8 hours of incubation),0 (a score of 0 if no trace of the product of hydrolysis was seen after 8 hours of incubation)
Ac-GASLHGKFL-NH2 [SLHG],0 (a score of 0 if no trace of the product of hydrolysis was seen after 8 hours of incubation),0 (a score of 0 if no trace of the product of hydrolysis was seen after 8 hours of incubation),–,–
Ac-GASYHSKFL-NH2 [SYHS],0 (a score of 0 if no trace of the product of hydrolysis was seen after 8 hours of incubation),0 (a score of 0 if no trace of the product of hydrolysis was seen after 8 hours of incubation),–,–
Ac-GASGHYKFL-NH2 [SGHY],0 (a score of 0 if no trace of the product of hydrolysis was seen after 8 hours of incubation),0 (a score of 0 if no trace of the product of hydrolysis was seen after 8 hours of incubation),–,–
Ac-GASHHEKFL-NH2 [SHHE],0 (a score of 0 if no trace of the product of hydrolysis was seen after 8 hours of incubation),0 (a score of 0 if no trace of the product of hydrolysis was seen after 8 hours of incubation),–,–
Ac-GASGHGKFL-NH2 [SGHG],0 (a score of 0 if no trace of the product of hydrolysis was seen after 8 hours of incubation),0 (a score of 0 if no trace of the product of hydrolysis was seen after 8 hours of incubation),–,–
Ac-GASNHKKFL-NH2 [SNHK],4 (a score of 4 for detection at 6 hours),4 (a score of 4 for detection at 6 hours),–,–
Ac-GASRHVKFL-NH2 [SRHV],6 (a score of 6 for detection at 4 hours),"12 (a score of 12, if it was seen to be partially hydrolysed at 2 hours)",–,–
Ac-GATAHLKFL-NH2 [TAHL],–,–,0 (a score of 0 if no trace of the product of hydrolysis was seen after 8 hours of incubation),0 (a score of 0 if no trace of the product of hydrolysis was seen after 8 hours of incubation)
Ac-GATPHVKFL-NH2 [TPHV],–,–,–,0 (a score of 0 if no trace of the product of hydrolysis was seen after 8 hours of incubation)
Ac-GATLHEKFL-NH2 [TLHE],–,–,0 (a score of 0 if no trace of the product of hydrolysis was seen after 8 hours of incubation),0 (a score of 0 if no trace of the product of hydrolysis was seen after 8 hours of incubation)
Ac-GATYHTKFL-NH2 [TYHT],–,–,0 (a score of 0 if no trace of the product of hydrolysis was seen after 8 hours of incubation),0 (a score of 0 if no trace of the product of hydrolysis was seen after 8 hours of incubation)
